In paper PMC9138994 (Biomolecules, 2022):

Tested on: C57BL/6 mice
Test: Tail suspension test (TST)
Format: in vivo
Conditions: acute i.p. pretreatment, ST-2300 10 or 15 mg/kg, PIM 5–15 mg/kg, FLX 10 mg/kg, vs saline controls, C57BL/6 mice, 6 min
Description: Inbred adult male C57BL/6 mice (aged 10–12 weeks and weighing 20–25 g) were obtained from the animal facility in the College of Medicine and Health Sciences, United Arab Emirates University. The animals were maintained in a separate air-conditioned room with controlled temperature and humidity (24 ± 2 °C and 55 ± 15%, respectively), with a 12 h light/dark cycle, and ad libitum to food and water. All the experiments were performed between 9.00 am and 3.00 pm. The procedures were approved by the Institutional Animal Ethics Committee of College of Medicine and Health Sciences/United Arab Emirates University (Approval No. ERA-2019-6010). To reduce the suffering of the animals, a minimum number of animals were used in this study, whereas the objectives were not compromised.
These experiments provide the first behavioral assessment of the ST-2300 in anxiety-like and depression-like behaviors in mice. All doses are expressed in terms of the free base of all test compounds. The drugs used in the current study were dissolved in saline and injected i.p. at a volume of 1 mL/kg. All experimental procedures were conducted in a blinded fashion in which the experimenter was uninformed about the specific treatment groups to which an animal group belonged. Saline, ST-2300 (5, 10, and 15 mg/kg), PIM (5, 10, and 15 mg/kg), FLX (10 mg/kg), RAM (10 mg/kg), and DZP (1 mg/kg) were injected i.p. 30–45 min before the beginning of the behavioral experiments.
This experimental protocol was followed as previously described, however with slight modifications. Each mouse was suspended on the edge of a rod 50 cm above a table top using adhesive Scotch tape placed approximately 1 cm from the tip of the tail. Tail climbing was prevented by passing the mouse’s tail through a small plastic cylinder prior to suspension, as described by Can et al.. The duration of immobility was manually scored for a 6 min observation period. Mice were considered immobile only when they hung down passively and were completely motionless. The parameter recorded was the number of seconds spent immobile.

With `CNCCC(Oc1ccc(C(F)(F)F)cc1)c1ccccc1` (stereo not shown) [FLX, fluoxetine, reference compound] the “immobility time in TST” value was “significant differences between FLX and saline controls”.
